Measurements from patent US9719987B2, “Immunoadsorbent compositions comprising hyaluronic acid oligosaccharides” (FUNDACIO INSTITUT D'INVESTIGACIO BIOMEDICA DE BELLVITGE …, priority 2012, dated 2017).
“And” between values parts separate entries of the source, which are not always exact repeats. Identical values can stand only once.

Legend:
[1] = baboon C63, 200 mg/kg CyP over 4 days from day 20, day relative to first PRBC injection
Text: The dose of CyP was chosen because it largely eliminates the mature immune system, leading to a major reduction in antibody and autoantibody levels, while leaving hematopoietic precursors intact.

[2] = tested on: anti-carbohydrate antibodies of baboon serums; test: Glycan array screening of baboon serums (406 glycans); format: binding, baboons (Papio anubis); settings: for average±S.D. level of antibodies: before transplant/PRBC, animals without anti-Gal removal (A15, A14) or sampled before GAS914 (C63); for change of anti-carbohydrate antibodies after PRBC exposure: animal E19
Text: Heterotopic pig heart and kidney were placed in the abdominal cavity of baboons as previously described (Schmoeckel M et al. 1998 Transplantation 65:1570-1577; Cozzi E et al. 1997 Transplantation. 64:1383-1392). Blood samples for anti-carbohydrate antibody analysis were obtained from each animal before transplantation and at acute humoral xenotransplant rejection (AHXR).
Three animals (D29, E19 and E7) were exposed to weekly injections of 5 cubic centimeters (cc) of PRBC three times and blood samples for anti-carbohydrate antibodies were analysed one week after last injection. Another animal received 7 daily injections of 5 cc of PRBC (C63), until an augment of the level of anti-pig hemolytic antibodies (APHA) was observed, and blood samples were analysed at days 2, 20 and 30 relative to the first PRBC injection.
The carbohydrate-binding specificity of baboon serums obtained before and after pig organ xenotransplantation or PRBC exposure was investigated on glycan array v4.1 comprised of 406 glycans (Consortium for Functional Glycomics, Protein-Glycan Interaction Core-H) (http://www.functionalglycomics.org). Two different studies were performed: Consortium for Functional Glycomics projects #1313 and #1577. Pre and post-immunization samples from each animal were analysed in the same glycoarray study with exception of C63 day 20, which was performed in study #1577 whilst the other samples from this animal were analysed in study #1313. In order to assess the potential effect of a different glycoarray study, a linear mixed model with repeated measures was fitted for each carbohydrate, with its log expression as dependent variable and type of sample (pre or post-immunization) and the study (#1313 or #1577) as independent variables.

[3] = tested on: anti-HA antibodies in human serum; test: Specific ELISA for HA oligosaccharides, human serum; format: binding
Text: (§1) The enzyme-linked immunosorbent assay (ELISA) plates were coated with HA oligosaccharides (disaccharide, tetrasaccharide and decasaccharide) conjugated with polyacrylamide, obtained from Shemyakin-Ovchinnikov Institute of Biorganic Chemistry, Russian Academy of Science (Moscow, Russia). The disaccharide form was synthesized in this institution, whilst the tetrasaccharide and decasaccharide molecules were obtained from Sigma, Spain, and bound to polyacrylamide in this center. The protocol for determination of anti-HA antibodies was based in previously described ELISAs to determine other anti-carbohydrate antibodies with minimal modifications (Mañez R et al. 2001 Xenotransplantation 8: 15-23; Obukhova P et al. 2007 Xenotransplantation 14: 627-635).
Humans also have preformed antibodies against HA disaccharide (von Gunten S et al. 2009 J Allergy Clin Immunol 123: 1268-1276; Huflejt M E et al. 2009 Mol Immunol 46: 3037-3049). Thus, we used human serums randomly selected to investigate by specific ELISAS, the presence of preformed antibodies against HA disaccharide, tetrasaccharide and decasacchride. Also, antibodies against HA oligosaccharides were investigated in rats immunized either with PRBC and hamster blood following two protocols to generate mainly IgM or IgG antibodies.
The inventors analyzed the level of anti-HA disaccharide antibodies by specific ELISA in patients with SLE and anti-DNA antibodies (Group A; n=17), SLE without anti-DNA antibodies (Group B; n=10) and controls from blood bank (Group C; n=13). The values for IgM anti-HA disaccharide antibodies were (mean±S.E.) 0.58±0.07 in Group A, 0.71±0.13 in Group B, and 0.74±0.11 in Group C, with p=0.1 in ANOVA comparing Group A with Groups B or C. For IgG, the values were 0.37±0.08 in Group A, 0.27±0.05 in Group B, 0.27±0.03 in Group C, with a p=0.3 in ANOVA comparing Group A with Groups B or C.

[4] = tested on: anti-HA antibodies in rat serum; test: Specific ELISA for HA oligosaccharides, rats immunized with PRBC or hamster blood; format: binding; settings: for level of preformed antibodies in rats compared to humans: rats before exposure; for level of preformed antibodies in rats compared to humans / production of IgM antibodies: FIG. 6; for production of IgM antibodies / production of IgG antibodies: rats; for production of IgM antibodies: three injections of PRBC or hamster blood every other day; for production of IgG antibodies: three injections of PRBC or hamster blood every other week, FIGS. 7 and 8
Protocol: Rats were immunized either with PRBC and hamster blood following two protocols to produce mainly IgM or IgG anti-carbohydrate antibodies. Three injections of 1 ml every other day (days 0, 2 and 4) and drawn of blood sample on day 5 was used to investigate IgM antibodies, and three injections every two weeks times 3, with blood obtained 12 days after last injection was used to investigate IgG antibodies.
as §1

[5] = tested on: human endothelial cells (HMEC); test: Flow cytometry of non-human primate antibody binding to HMEC pre-treated with hyaluronidase; format: cell-based
Text: The authors have previously shown that immunization of non-human primates with pig blood is associated with the generation of xenoantibodies cross-reactive to human endothelial cells. To investigate whether HA antigens were involved in this reactivity, human endothelial cells (HMEC) were pre-treated with 20 Um′ of hyaluronidase from Streptomyces, which is specific for HA, for one hour. This hyaluronidase cleaves HA in fragments of 4 and 6 saccharides (tetra- and hexasaccharides). […] To show the effect of hyaluronidase pre-treatment in HA on HMEC cells, a hyaluronan-binding-protein (HABP), which binds to large molecular weight HA, was used as control (FIG. 9C).

[6] = tested on: hyaluronan (HA antigens) in pig xenograft tissue; test: Immunohistochemistry of IgM and IgG deposits in xenografts at AHXR with hyaluronidase pre-treatment; parameters: species or system pig xenograft in baboon
Protocol: In all the transplants an open xenograft biopsy was obtained 30 minutes after reperfusion, as well as at autopsy after AHXR. Tissue samples were fixed in 10% buffered formalin for at least 24 hours, dehydrated, and embedded in paraffin. Sections of 4 μm thickness were stained with hematoxylin and eosin Immunohistochemical examinations for IgG and IgM were performed in paraffin-embedded material. After inhibition of endogenous alkaline phosphatase with levamisol for 10 minutes, samples were incubated with goat anti-human IgG and IgM alkaline phosphatase conjugated (Sigma-Aldrich) for 30 minutes at 1:50 dilution. Tissue samples where then incubated with the EnVision™ G|2, Rabbit/Mouse (LINK) (Dako) following product recommendations. This reagent is a dextran polymer, which also carries antibodies to rabbit and mouse immunoglobulins. Finally, an alkaline phosphatase-labelled amplification polymer is added. The reaction is visualized by Permanent Red Chromogen also included in the kit. To investigate the potential role of hyaluronan as antigen some tissue sections were pre-treated with 50 u/mL of Streptomyces hyaluronidase (Sigma-Aldrich) for two hours at 37° C., which unlike other hyaluronidases is specific for hyaluronan.
To investigate the potential impact of HA antigens in AHXR, the presence of IgM and IgG deposits in tissue samples was investigated with and without previous incubation with Streptomyces hyaluronidase, which is specific for HA.

[7] = animal D17, kidney xenotransplantation
[8] = randomly selected human serums, FIG. 5
[9] = Group A: SLE and anti-DNA antibodies, n=17
[10] = Group B: SLE without anti-DNA antibodies, n=10
[11] = Group C: controls from blood bank, n=13
[12] = hyaluronidase pre-treatment 20 Um′, one hour, serum of primates immunized with pig blood

O=P1(N(CCCl)CCCl)NCCCO1 (stereo not drawn) [CyP, cyclophosphamide]
day of death because of side effects from CyP treatment [1]: 31 days and 30 days

CC(=O)N[C@H]1C(O)O[C@H](CO)[C@@H](O[C@@H]2O[C@H](CO)[C@H](O)[C@H](O[C@H]3O[C@H](CO)[C@H](O)[C@H](O)[C@H]3O)[C@H]2O)[C@@H]1O (stereo partly drawn) [Gal, Galα1-3Galβ1-4GlcNAc, reference compound]
average±S.D. level of antibodies [2]: 3865±2892 net fluorescence units (NFU)

C[C@@H]1O[C@@H](OCCCN)[C@H](O)[C@H](O)[C@H]1O [Glycan 11, Rha-Sp8, reference compound]
change of anti-carbohydrate antibody reactivity at AHXR vs before transplantation [2, 7]: augmented

CC(=O)N[C@H]1[C@H]([C@H](O)[C@H](O)CO)O[C@](OCCCN)(C(=O)O)C[C@@H]1O [Glycan 14, Neu5Acβ-Sp8, reference compound]
change of anti-carbohydrate antibodies after PRBC exposure [2]: barely changed

CC(=O)N[C@H]1[C@H](O[C@H]2[C@H](O)[C@@H](O)[C@H](O[C@H]3[C@H](O)[C@@H](CO)OC(O)[C@@H]3NC(C)=O)O[C@@H]2C(=O)O)O[C@H](CO)[C@@H](O)[C@@H]1O[C@@H]1O[C@H](C(=O)O)[C@@H](O)[C@H](O)[C@H]1O (stereo partly drawn) [HA tetrasaccharide]
preformed IgM antibodies in human serum [3, 8]: preformed IgM antibodies | level of preformed antibodies in rats compared to humans [4]: lower level | production of IgM antibodies [4]: significant production of IgM antibodies | production of IgG antibodies [4]: significant production

GlcAβ1-3GlcNAcβ-Sp8 [Glycan 300]
cases with antibodies within the top 20 increases after PRBC exposure ([2]; PRBC exposure, 4 baboons): all the cases | change of anti-carbohydrate antibody reactivity at AHXR vs before transplantation ([2]; animal A14, severe rejection): More significant raises | change of anti-carbohydrate antibody reactivity at AHXR vs before transplantation ([2]; animal A15, no treatment, survival 4 days): decreased reactivity | augment of antibodies after PRBC exposure ([2]; animal C63, day 20, two weeks after end of PRBC injections): evidenced | level of antibodies after PRBC exposure ([2]; animal C63, day 30 after CyP treatment): higher level of anti-carbohydrate antibodies | augment of antibodies after PRBC exposure ([2]; animal C63, day two, during PRBC exposure): not present | change of anti-carbohydrate antibody reactivity at AHXR vs before transplantation ([2]; animal D10, mild rejection): moderated augment | change of anti-carbohydrate antibody reactivity at AHXR vs before transplantation ([2]; animal D12, severe rejection): More significant raises | change of anti-carbohydrate antibody reactivity at AHXR vs before transplantation [2, 7]: moderated augment | change of anti-carbohydrate antibodies after PRBC exposure [2]: higher level and increase | rank of average level of antibodies ([2]; baboons before exposure to PRBC): highest reactivity | rank of average level of antibodies ([2]; baboons before pig organ xenotransplantation): second highest reactivity | average±S.D. level of antibodies [2]: 18332±14201 net fluorescence units (NFU) | IgG anti-HA disaccharide antibodies (mean±S.E.) [3, 9]: 0.37±0.08 | IgM anti-HA disaccharide antibodies (mean±S.E.) [3, 9]: 0.58±0.07 | IgG anti-HA disaccharide antibodies (mean±S.E.) [3, 10]: 0.27±0.05 | IgM anti-HA disaccharide antibodies (mean±S.E.) [3, 10]: 0.71±0.13 | IgG anti-HA disaccharide antibodies (mean±S.E.) [3, 11]: 0.27±0.03 | IgM anti-HA disaccharide antibodies (mean±S.E.) [3, 11]: 0.74±0.11 | preformed IgG antibodies in human serum [3, 8]: preformed IgG antibodies are only against HA disaccharide | preformed IgM antibodies in human serum [3, 8]: preformed IgM antibodies | level of preformed antibodies in rats compared to humans [4]: lower level | production of IgM antibodies [4]: significant production of IgM antibodies | production of IgG antibodies [4]: significant production

Hyaluronidase
non-human primate IgG antibody binding to HMEC [5, 12]: augment | non-human primate IgM antibody binding to HMEC [5, 12]: not observed | HA expression on HMEC detected with hyaluronan-binding-protein (HABP) ([5]; hyaluronidase pre-treatment, compared to the baseline): reduction of HA expression | IgG antibody deposits in xenograft at AHXR, semiquantitative score ([6]; animal A14, AHXR III): complete disappearance | IgM antibody deposits in xenograft at AHXR, semiquantitative score ([6]; animal A14, AHXR III): notably reduced | IgG antibody deposits in xenograft at AHXR, semiquantitative score ([6]; animal A15, AHXR III): complete disappearance | IgM antibody deposits in xenograft at AHXR, semiquantitative score ([6]; animal A15, AHXR III): did not show any change | IgG antibody deposits in xenograft at AHXR, semiquantitative score ([6]; animal D10, AHXR I): complete disappearance | IgM antibody deposits in xenograft at AHXR, semiquantitative score ([6]; animal D10, AHXR I): disappeared | IgG antibody deposits in xenograft at AHXR, semiquantitative score ([6]; animal D12, AHXR III): remarkable reduction | IgM antibody deposits in xenograft at AHXR, semiquantitative score ([6]; animal D12, AHXR III): notably reduced | IgG antibody deposits in xenograft at AHXR, semiquantitative score ([6]; animal D17, AHXR III): remarkable reduction | IgM antibody deposits in xenograft at AHXR, semiquantitative score ([6]; animal D17, AHXR III): did not show any change
